Results from ChEMBL document CHEMBL1201862, “PubChem BioAssay data set” (2004).
Active and inactive are the calls of the source.

Tests used:
[1] = NIH-3T3 fibroblast cytotoxicity, dose response, cytotoxicity control, cell-based, fluorescence, Alamar Blue, secondary assay (AID 2327); format: functional;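 further: NIH-3T3 mouse fibroblasts cultured with fluconazole at 8 µg/mL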
[2] = target: DNA dC->dU-editing enzyme APOBEC-3A (Homo sapiens, UniProt P31941); test: Dose Response confirmation of small molecule APOBEC3A DNA Deaminase Inhibitors via a fluorescence-based single-stranded DNA deaminase assay. [Related pubchem assays (depositor defined):AID493011, AID493024]; format: functional
Sequence of DNA dC->dU-editing enzyme APOBEC-3A (P31941 whole entry): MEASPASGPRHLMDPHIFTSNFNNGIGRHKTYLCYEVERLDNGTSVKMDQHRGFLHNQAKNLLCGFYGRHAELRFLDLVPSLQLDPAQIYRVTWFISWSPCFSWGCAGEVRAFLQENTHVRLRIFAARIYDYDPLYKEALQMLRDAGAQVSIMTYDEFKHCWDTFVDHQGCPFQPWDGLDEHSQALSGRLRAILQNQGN

[3] = target: DNA dC->dU-editing enzyme APOBEC-3G (Homo sapiens, UniProt Q9HC16); format: functional;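 further: Dose-response counterscreen measuring inhibition of APOBEC3G DNA deaminase activity, run while confirming APOBEC3A inhibitors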
Sequence of DNA dC->dU-editing enzyme APOBEC-3G (Q9HC16 whole entry): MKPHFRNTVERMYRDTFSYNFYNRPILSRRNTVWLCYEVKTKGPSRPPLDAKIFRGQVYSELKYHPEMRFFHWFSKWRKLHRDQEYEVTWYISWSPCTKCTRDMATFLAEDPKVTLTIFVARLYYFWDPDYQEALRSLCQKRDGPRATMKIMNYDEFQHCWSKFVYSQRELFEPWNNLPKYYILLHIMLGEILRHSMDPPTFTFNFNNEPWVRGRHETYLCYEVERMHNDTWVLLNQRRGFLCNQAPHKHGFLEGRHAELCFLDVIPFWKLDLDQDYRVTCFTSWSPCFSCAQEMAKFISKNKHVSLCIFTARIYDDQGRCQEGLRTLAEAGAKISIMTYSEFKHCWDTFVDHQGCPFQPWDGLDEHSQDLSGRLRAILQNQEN

[4] = target: Luciferin 4-monooxygenase (Photinus pyralis, UniProt P08659); test: firefly luciferase enzyme inhibitors, dose response, biochemical, luminescence (AID 1891)
Sequence of Luciferin 4-monooxygenase (P08659 whole entry): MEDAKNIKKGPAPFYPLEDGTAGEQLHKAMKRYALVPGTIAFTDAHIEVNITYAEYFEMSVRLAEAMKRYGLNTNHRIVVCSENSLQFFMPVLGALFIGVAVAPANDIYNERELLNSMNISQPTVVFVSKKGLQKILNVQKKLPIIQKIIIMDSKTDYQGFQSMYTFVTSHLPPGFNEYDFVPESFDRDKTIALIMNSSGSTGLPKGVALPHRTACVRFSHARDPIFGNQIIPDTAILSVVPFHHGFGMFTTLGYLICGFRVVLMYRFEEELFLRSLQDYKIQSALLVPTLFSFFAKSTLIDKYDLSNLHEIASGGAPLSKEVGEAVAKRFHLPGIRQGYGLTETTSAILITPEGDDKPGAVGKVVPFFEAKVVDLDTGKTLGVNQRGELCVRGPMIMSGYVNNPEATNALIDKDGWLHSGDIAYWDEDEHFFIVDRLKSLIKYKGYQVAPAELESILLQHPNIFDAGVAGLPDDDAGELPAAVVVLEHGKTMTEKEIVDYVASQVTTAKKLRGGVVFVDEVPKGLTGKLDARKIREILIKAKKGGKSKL

[5] = Luminescence Cell-Based Dose Confirmation HTS to Identify Inhibitors of Platelet Dense Granule Release. [Related pubchem assays: 1663 (Primary HTS), 1678 (Summary of Project)]; format: functional
[6] = target: Voltage-dependent T-type calcium channel subunit alpha-1H (Homo sapiens, UniProt O95180); format: functional;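 further: channel activity triggered by adding a high calcium stimulation buffer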
Sequence of Voltage-dependent T-type calcium channel subunit alpha-1H (O95180 whole entry, the tested form may be a part): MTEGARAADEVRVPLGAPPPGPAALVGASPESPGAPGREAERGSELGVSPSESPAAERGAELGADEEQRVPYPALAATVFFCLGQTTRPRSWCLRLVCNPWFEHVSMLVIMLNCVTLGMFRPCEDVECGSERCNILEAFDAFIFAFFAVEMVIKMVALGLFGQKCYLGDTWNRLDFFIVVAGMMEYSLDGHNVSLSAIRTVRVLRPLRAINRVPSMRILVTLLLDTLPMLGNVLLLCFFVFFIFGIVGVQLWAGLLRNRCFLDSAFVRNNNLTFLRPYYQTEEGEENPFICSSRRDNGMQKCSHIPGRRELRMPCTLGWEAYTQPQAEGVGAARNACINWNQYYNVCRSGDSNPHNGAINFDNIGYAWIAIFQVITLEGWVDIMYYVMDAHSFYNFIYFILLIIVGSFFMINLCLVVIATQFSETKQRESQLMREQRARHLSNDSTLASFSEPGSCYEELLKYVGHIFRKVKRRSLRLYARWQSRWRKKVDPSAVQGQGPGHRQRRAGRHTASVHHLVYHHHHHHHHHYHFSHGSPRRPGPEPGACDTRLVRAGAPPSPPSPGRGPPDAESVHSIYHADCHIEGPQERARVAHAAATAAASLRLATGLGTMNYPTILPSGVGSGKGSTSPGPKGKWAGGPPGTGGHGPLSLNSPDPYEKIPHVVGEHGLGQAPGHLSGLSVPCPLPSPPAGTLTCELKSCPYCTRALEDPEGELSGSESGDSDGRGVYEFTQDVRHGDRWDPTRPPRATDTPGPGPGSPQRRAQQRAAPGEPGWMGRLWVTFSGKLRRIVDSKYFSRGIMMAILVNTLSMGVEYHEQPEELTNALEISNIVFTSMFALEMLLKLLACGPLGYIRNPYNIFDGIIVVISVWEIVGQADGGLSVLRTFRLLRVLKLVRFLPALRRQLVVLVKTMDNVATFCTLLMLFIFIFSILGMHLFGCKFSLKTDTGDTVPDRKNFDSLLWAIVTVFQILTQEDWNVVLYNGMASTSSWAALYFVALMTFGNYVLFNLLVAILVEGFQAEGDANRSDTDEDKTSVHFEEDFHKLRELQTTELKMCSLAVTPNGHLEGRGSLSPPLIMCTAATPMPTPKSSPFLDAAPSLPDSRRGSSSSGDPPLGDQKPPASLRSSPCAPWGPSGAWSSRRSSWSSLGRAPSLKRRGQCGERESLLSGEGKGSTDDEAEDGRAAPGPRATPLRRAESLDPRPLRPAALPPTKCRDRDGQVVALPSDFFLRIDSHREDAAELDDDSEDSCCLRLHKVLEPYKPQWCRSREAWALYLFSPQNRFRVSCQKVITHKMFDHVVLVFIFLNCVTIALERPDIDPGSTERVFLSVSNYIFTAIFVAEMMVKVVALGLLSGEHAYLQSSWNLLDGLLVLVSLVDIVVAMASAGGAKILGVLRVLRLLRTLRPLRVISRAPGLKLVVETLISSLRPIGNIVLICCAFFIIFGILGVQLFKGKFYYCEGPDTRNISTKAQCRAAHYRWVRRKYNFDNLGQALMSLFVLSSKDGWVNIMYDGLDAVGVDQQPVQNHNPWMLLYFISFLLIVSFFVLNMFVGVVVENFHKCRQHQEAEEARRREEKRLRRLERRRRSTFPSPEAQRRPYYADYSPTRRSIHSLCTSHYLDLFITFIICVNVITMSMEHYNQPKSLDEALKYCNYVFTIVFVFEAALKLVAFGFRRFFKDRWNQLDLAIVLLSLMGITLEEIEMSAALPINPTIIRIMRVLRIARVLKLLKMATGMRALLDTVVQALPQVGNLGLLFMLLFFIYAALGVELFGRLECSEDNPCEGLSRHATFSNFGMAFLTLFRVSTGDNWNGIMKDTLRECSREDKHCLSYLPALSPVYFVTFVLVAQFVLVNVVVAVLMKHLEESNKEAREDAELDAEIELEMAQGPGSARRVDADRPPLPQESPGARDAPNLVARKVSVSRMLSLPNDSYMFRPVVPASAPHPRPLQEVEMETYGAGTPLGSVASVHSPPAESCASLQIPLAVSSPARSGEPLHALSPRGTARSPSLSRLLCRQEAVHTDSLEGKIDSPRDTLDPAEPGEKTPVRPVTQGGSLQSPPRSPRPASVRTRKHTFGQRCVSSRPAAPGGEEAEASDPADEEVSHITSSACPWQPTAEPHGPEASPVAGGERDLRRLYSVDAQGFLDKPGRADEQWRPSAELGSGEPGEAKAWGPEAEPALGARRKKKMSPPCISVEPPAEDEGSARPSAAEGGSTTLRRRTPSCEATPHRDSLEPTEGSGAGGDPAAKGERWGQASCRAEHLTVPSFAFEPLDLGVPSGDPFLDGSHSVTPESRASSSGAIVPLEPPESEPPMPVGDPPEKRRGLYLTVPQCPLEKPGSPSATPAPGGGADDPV

[7] = luciferase reporter signal reduction – luminescence, H4-C neuroglioblastoma cells, dose response (AID 2458); format: functional, cell-based;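 further: H4 neuroglioblastoma cells stably carrying a luciferase reporter gene fusion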
cells = format: functional, cell-based
[8] = inhibitors of SNCA 5'UTR-driven translation, confirmation, luminescence, H4 neuroglioblastoma cells, dose confirmation (AID 2454); format: functional, cell-based;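 further: H4 neuroglioblastoma cells carrying an alpha-synuclein 5'UTR luciferase reporter; potency for inhibition of the luciferase signal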
[9] = target: T1, Heat shock factor protein 1 (Mus musculus, UniProt P38532); test: inhibition of MG132-induced HSE-luciferase signal, confirmation, cell-based, NIH3T3, luminescence, dose retest (AID 2382); format: functional;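 further: NIH3T3 fibroblasts with HSF1-driven luciferase reporter stressed by proteasome inhibitor MG132; luminescence from HSF1-driven luciferase expression after 8 hours of MG132 stress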
T1 sequence (P38532 whole entry): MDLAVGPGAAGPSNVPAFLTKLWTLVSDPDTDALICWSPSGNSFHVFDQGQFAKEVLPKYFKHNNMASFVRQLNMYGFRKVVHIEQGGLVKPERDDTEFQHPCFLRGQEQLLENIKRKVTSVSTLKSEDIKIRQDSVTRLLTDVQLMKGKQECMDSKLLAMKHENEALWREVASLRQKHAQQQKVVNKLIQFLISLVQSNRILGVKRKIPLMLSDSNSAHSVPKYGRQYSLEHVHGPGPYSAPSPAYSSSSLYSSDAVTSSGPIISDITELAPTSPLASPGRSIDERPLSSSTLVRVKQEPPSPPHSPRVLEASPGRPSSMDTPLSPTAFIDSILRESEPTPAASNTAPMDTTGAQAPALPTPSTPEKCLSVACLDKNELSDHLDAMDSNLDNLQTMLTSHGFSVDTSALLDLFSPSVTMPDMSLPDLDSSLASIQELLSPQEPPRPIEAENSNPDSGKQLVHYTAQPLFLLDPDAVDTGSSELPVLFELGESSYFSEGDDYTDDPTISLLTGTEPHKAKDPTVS

Mucolipin-3 = target: T2, Mucolipin-3 (Homo sapiens, UniProt Q8TDD5); test: Dose response cell-based high-throughput screening assay for agonists of the transient receptor potential channel ML3 (TRPML3). [Related pubchem assays: 1526, 1424, 1448 ]; format: functional
T2 sequence (Q8TDD5 whole entry): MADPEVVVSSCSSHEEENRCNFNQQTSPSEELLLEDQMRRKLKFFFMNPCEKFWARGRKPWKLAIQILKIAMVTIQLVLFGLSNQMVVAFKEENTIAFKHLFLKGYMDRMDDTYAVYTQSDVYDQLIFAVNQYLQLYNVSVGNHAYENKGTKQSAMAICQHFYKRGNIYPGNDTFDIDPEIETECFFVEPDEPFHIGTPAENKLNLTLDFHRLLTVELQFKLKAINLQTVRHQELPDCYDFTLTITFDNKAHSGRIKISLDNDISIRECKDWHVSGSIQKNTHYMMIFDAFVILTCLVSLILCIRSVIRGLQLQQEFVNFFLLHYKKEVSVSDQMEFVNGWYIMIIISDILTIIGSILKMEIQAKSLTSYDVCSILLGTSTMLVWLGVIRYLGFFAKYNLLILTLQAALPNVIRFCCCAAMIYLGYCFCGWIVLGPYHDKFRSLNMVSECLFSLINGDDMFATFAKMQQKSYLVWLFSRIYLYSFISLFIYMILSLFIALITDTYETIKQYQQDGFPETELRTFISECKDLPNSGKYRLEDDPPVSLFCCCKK

Ion channel NompC = Ion channel NompC (Danio rerio, UniProt Q7T1G6); test: Fluorescence counterscreen assay for TRPML3 agonists: dose response cell-based high-throughput screening assay to identify agonists of the transient receptor potential channel N1 (TRPN1). [Related pubchem assays: 1526, 1424, 1448 ]; format: functional
[10] = inhibitors of firefly luciferase expression or activity, dose response, H4 neuroglioma cells, luminescence (AID 1990); format: functional, cell-based
[11] = Luminescence Cell-Based Dose Response HTS to Identify Inhibitors of 5'UTR Stem-Loop Driven Prion Protein mRNA Translation in H4 Neuroglioblastoma Cells. [Related pubchem assays: 1827 (Project Summary), 1813 (Primary HTS)]; format: functional
[12] = target: Glyceraldehyde-3-phosphate dehydrogenase (Homo sapiens, UniProt P04406)
Sequence of Glyceraldehyde-3-phosphate dehydrogenase (P04406 whole entry): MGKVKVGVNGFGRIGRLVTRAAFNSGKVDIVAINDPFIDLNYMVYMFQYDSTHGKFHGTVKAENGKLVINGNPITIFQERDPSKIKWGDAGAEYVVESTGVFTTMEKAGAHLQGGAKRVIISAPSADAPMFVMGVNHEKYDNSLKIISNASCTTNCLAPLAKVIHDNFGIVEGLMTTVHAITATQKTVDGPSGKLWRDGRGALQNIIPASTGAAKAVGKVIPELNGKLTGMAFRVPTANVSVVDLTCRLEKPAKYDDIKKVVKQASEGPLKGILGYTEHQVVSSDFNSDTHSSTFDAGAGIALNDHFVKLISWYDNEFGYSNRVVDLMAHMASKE

[13] = target: T3, Alkaline phosphatase, tissue-nonspecific isozyme (Homo sapiens, UniProt P05186); test: human TNAP enzyme inhibitors, SAR follow-up, biochemical, luminescent, dose response (AID 1056)
T3 sequence (P05186 whole entry): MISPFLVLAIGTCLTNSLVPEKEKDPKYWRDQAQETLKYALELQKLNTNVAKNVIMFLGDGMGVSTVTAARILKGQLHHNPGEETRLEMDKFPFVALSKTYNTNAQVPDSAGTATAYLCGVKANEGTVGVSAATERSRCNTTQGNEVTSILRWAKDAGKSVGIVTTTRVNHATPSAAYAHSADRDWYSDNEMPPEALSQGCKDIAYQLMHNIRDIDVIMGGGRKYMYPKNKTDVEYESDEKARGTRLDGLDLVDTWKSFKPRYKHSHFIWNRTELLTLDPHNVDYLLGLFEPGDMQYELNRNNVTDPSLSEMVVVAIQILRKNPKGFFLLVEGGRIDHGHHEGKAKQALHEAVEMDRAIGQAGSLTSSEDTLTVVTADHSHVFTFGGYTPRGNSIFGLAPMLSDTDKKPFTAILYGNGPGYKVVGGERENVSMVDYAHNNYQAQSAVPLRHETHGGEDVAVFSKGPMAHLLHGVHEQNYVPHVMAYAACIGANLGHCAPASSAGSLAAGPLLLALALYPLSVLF

[14] = A cytotoxicity screen of small molecule inhibitors of the PhoP region in Salmonella typhi identified in the primary screen. [Related pubchem assays: 1850, 1864, 1985 ]; format: functional
[15] = target: T4, Short transient receptor potential channel 4 (Mus musculus, UniProt Q9QUQ5); test: mouse TRPC4 channel activators, dose response, cell-based, HEK293 TRPC4/mu-opioid, Fluo-4 calcium (AID 434937); format: functional
T4 sequence (Q9QUQ5 whole entry): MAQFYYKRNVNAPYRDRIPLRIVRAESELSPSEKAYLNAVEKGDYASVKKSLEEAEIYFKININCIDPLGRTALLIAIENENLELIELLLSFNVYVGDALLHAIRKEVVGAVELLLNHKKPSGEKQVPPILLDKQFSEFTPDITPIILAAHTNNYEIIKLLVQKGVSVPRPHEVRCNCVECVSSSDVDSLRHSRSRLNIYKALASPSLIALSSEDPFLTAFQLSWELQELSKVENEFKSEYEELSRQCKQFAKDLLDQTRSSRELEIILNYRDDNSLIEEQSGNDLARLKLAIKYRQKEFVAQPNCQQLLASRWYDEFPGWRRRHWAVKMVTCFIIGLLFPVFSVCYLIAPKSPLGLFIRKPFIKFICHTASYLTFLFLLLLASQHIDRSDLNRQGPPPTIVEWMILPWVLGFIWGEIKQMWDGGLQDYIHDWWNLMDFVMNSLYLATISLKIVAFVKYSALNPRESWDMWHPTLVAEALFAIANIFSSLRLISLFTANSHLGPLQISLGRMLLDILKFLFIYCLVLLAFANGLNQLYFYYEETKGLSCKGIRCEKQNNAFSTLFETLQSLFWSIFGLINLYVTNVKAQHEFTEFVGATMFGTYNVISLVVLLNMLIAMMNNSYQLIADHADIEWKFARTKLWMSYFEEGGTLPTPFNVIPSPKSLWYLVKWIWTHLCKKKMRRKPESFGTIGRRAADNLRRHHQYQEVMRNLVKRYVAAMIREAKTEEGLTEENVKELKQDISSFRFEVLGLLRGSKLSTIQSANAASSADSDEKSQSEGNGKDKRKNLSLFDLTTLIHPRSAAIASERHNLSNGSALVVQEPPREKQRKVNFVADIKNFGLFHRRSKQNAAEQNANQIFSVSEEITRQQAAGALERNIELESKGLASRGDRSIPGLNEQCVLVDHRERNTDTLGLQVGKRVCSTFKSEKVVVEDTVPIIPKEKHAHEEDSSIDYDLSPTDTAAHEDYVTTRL

Cytochrome P450 1A2 = target: T5, Cytochrome P450 1A2 (Homo sapiens, UniProt P05177);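 further: PubChem cytochrome P450 panel assay, CYP1A2 panel member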
T5 sequence (P05177 whole entry): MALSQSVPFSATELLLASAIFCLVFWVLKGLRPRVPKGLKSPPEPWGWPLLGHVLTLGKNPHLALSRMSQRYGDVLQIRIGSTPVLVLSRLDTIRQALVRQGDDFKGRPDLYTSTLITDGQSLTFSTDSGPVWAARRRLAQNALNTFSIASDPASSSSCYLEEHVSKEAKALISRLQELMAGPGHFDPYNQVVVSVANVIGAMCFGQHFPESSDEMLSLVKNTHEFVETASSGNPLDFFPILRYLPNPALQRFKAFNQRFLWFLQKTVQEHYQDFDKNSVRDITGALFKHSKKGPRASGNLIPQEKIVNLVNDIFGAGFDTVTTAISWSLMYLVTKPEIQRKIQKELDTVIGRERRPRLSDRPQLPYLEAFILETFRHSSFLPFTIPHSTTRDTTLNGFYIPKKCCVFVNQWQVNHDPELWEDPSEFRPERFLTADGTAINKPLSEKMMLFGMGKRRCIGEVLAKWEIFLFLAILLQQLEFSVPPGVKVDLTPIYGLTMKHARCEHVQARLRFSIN

[16] = Luminescence Cell-Based Dose Confirmation HTS to Identify Activators of 5'UTR Stem-Loop Driven Alpha-Synuclein mRNA Translation in H4 Neuroglioblastoma Cells. [Related pubchem assays: 1829 (Project Summary), 1814 (Primary HTS)]; format: functional
[17] = Luminescence Cell-Based Dose Response HTS to Identify Activators of Luciferase Translation or Activity in H4 […] Cells. [Related pubchem assays: 1829 (Project Summary), 1814 (Primary HTS)]; format: functional
H4 = test: Luminescence Cell-Based Dose Response HTS to Identify Activators of 5'UTR Stem-Loop Driven Prion Protein mRNA Translation in H4 Neuroglioblastoma Cells. [Related pubchem assays: 1829 (Project Summary), 1814 (Primary HTS)]; format: functional; conditions: Homo sapiens
Bcl-2-like protein 10 = target: T6, Bcl-2-like protein 10 (Homo sapiens, UniProt Q9HD36); test: displacers of TR3 peptide from Bcl-B, primary screen, selectivity assay for Bfl-1 inhibitor project, biochemical, fluorescence polarization, FITC-TR3 peptide (AID 748);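 further: fluorescence polarization from a fluorescein-labelled TR3 peptide binding purified Bcl-B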
T6 sequence (Q9HD36 whole entry): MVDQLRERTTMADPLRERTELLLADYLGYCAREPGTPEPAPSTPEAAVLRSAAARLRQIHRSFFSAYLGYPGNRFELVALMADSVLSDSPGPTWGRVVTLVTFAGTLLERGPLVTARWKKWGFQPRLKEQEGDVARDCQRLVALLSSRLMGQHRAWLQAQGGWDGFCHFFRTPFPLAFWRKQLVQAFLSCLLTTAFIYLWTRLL

[18] = THP-1 cell cytotoxicity, dose response, cytotoxicity control for Vif-APOBEC3G degradation inhibitor project, THP-1 cells (AID 1117359); format: functional; conditions: Human immunodeficiency virus 1, THP-1

## CCOc1cc(/C=C(\C#N)C(=O)NCC2CCCO2)ccc1OCC(N)=O (stereo not given)
[1]
  EC50: > 160 µM (inactive)
[2]
  IC50: 8.13 µM (active)
[3]
  IC50: 11 µM (active)

## CC(C)(C)n1nnnc1C(c1ccc(Cl)cc1)N1CCSCC1 (stereo not given)
[4]
  EC50: > 112 µM (not active)
[5]
  EC50: > 112 µM (not active)
[6]
  EC50: 0.85 µM (active)

## C=CCSc1nc2c(cnn2-c2ccccc2)c(=O)n1N
[7]
  EC50: 0.375 µM (inconclusive)
cells
  EC50: 0.914 µM (inconclusive)
[8]
  EC50: 0.235 µM (inconclusive)

## CCCCn1c(C)cc(C)c(S(=O)(=O)c2ccccc2C)c1=O
[9]
  EC50: > 195 µM (not active)
Mucolipin-3
  EC50: 3.78 µM (active)
Ion channel NompC
  EC50: > 29.9 µM (not active)

## Cc1ccc(Cn2cc(C=O)c3ccccc32)cc1
[10]
  EC50: 4.41 µM (active)
[7]
  EC50: 1.22 µM (active)
cells
  EC50: 0.782 µM (active)
[11]
  EC50: < 0.1 µM (active)
[8]
  EC50: 1.29 µM (active)

## COC(=O)c1cc(-c2ccc(C)cc2)[nH]n1
[12]
  IC50: > 100 µM (not active)
[13]
  IC50: 3.43 µM (active)

## COc1ccccc1N1CCN(CCCCOc2ccc(F)cc2)CC1
[6]
  EC50: 7.52 µM (active)

## CC1=C(C#N)CCC(=O)N1Cc1c(C)cc(C)cc1C
[14]
  EC50: > 50 µM (active)

## O=C(CC1C(=O)NCCN1Cc1ccccc1C(F)(F)F)NCCc1ccccn1 (stereo not given)
[15]
  EC50: 6.68 µM (active)

## O=C(Nc1ccc2c(c1)OCCO2)c1cc2sccc2n1Cc1ccccc1
[6]
  EC50: 7.92 µM (active)
Cytochrome P450 1A2
  AC50: 12.6 µM (inconclusive)

## COc1ccc(NC(=O)N2CCc3ccccc32)cc1
[14]
  EC50: > 50 µM (active)
[4]
  EC50: 3.53 µM (active)
[5]
  EC50: 1.08 µM (active)

## COc1ccc(CCn2c(=N)c(C(=O)NCC3CCCO3)cc3c(=O)n4ccccc4nc32)cc1 (stereo not given)
[14]
  EC50: > 50 µM (active)
[4]
  EC50: > 112 µM (not active)
[5]
  EC50: 15.7 µM (active)

## Nc1ccc2nc(SCC(=O)Nc3ccc(N4CCOCC4)c(Cl)c3)sc2c1
[16]
  EC50: 14.9 µM (active)
[17]
  EC50: 9.41 µM (active)
H4
  EC50: 49.1 µM (active)
[2]
  IC50: 3.65 µM (active)
[3]
  IC50: 8.08 µM (active)

## Cc1nn2c(N)csc2nc1=O
Bcl-2-like protein 10
  IC50: > 12.5 µM (inactive)

## C#CCSc1nnc(N)[nH]1
[12]
  IC50: > 100 µM (not active)
[13]
  IC50: > 100 µM (inactive)

## O=[N+]([O-])c1cc(-c2ccc(/C=N/c3nc4ccccn4c3-c3ccco3)o2)ccc1Cl
Bcl-2-like protein 10
  IC50: 96.8 µM (inactive)
[18]
  CC50: 18.8 µM (active)
